Test results as given in ChEMBL document CHEMBL1201862, “PubChem BioAssay data set” (2004).
Calls of active or inactive are those of the source.

Experiments:
Troponin, cardiac muscle = Troponin, cardiac muscle (Homo sapiens, UniProt P19429+P45379+P63316); test: Fluorescence-based biochemical high throughput dose response assay for activators of the calcium sensitivity of cardiac Regulated Thin Filaments (RTF). [Related pubchem assays (depositor defined):AID493008, AID493018, AID504382, AID504383]; assay type: protein-complex assay
[1] = target: DNA damage-inducible transcript 3 protein (Mus musculus, UniProt P35639); assay type: functional, Cricetulus griseus
HEK293 [2] = test: cells; assay type: functional, cell-based; conditions: Homo sapiens
HEK293 [3] = test: cells; assay type: functional, cell-based; conditions: Homo sapiens; remark: listed apart in the source
[4] = target: T1, Nucleotide-binding oligomerization domain-containing protein 1 (Homo sapiens, UniProt Q9Y239); test: blockers of NOD1 pathway activity – revised, SAR follow-up (AID 2333); assay type: functional
T1 sequence (Q9Y239 whole entry): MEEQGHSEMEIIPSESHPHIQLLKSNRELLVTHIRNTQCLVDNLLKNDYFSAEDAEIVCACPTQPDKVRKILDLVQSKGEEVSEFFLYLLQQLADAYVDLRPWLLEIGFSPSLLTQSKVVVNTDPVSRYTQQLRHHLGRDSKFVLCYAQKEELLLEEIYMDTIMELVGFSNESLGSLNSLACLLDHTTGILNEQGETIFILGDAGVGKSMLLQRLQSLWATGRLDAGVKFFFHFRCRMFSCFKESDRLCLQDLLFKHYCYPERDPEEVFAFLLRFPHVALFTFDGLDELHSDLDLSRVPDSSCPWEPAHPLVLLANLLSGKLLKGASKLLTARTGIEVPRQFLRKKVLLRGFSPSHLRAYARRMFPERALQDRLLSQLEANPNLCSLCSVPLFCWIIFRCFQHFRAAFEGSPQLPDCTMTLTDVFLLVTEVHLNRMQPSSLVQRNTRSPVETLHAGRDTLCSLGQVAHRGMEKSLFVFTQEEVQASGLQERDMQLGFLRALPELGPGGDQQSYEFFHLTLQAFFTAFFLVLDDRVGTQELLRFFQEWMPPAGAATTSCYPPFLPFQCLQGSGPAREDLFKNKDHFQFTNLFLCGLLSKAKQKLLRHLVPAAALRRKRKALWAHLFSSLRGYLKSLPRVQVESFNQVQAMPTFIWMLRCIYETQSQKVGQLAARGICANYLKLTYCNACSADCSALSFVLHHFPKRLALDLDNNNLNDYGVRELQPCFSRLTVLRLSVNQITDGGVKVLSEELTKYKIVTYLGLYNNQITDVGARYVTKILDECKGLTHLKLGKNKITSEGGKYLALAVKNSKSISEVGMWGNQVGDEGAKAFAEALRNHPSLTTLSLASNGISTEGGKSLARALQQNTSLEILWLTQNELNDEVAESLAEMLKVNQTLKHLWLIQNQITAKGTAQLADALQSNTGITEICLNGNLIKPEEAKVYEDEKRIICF

HEK293 [5] = test: inhibition of NOD1-driven NF-kB reporter – cell-based, luminescence, uHTS, primary screen (AID 1578); assay type: functional; conditions: Homo sapiens
[6] = target: T2, Nucleotide-binding oligomerization domain-containing protein 2 (Homo sapiens, UniProt Q9HC29); test: PubChem AID 2334; assay type: functional
HEK293 [7] = test: NOD2 signaling inhibitors in MDP-stimulated cells, cell-based, uHTS, luminescence (AID 2001); assay type: functional; conditions: Homo sapiens
[8] = target: T2, Nucleotide-binding oligomerization domain-containing protein 2; test: inhibition of NOD2-driven NF-kB reporter – cell-based, luminescence, uHTS, HEK293 (AID 1566); assay type: functional
Tumor necrosis factor = Tumor necrosis factor (Homo sapiens, UniProt P01375); test: analog potency on TNFa NF-kB signaling – cell-based, revised, SAR follow-up (AID 2337); assay type: functional
HEK293 [9] = test: cells; assay type: functional, cell-based; conditions: Homo sapiens; remark: listed apart in the source
HEK293 [10] = test: cells; conditions: Homo sapiens
cells = assay type: functional, cell-based; conditions: HEK-CNG
[11] = target: T3, High affinity choline transporter 1 (Homo sapiens, UniProt Q9GZV3); test: human choline transporter blockers, potency – cell-based, 5-point CRC, membrane potential dye, dose response (AID 504840); assay type: functional
T3 sequence (Q9GZV3 whole entry): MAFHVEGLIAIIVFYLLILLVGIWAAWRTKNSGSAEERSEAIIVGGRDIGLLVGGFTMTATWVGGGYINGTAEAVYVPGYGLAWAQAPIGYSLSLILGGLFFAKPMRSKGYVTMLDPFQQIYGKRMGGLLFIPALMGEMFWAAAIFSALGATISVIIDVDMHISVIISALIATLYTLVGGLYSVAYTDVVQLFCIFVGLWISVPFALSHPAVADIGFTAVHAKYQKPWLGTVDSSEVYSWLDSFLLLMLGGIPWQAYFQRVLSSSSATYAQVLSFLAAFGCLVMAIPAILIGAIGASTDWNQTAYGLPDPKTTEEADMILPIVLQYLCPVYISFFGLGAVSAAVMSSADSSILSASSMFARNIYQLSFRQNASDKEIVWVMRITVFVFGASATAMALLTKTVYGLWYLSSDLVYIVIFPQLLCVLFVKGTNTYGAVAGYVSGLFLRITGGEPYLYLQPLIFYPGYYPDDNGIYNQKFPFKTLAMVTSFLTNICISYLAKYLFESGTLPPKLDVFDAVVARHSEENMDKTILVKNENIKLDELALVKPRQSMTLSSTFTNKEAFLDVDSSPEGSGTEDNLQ

[12] = target: G-protein coupled receptor 55 (Homo sapiens, UniProt Q9Y2T6); test: inhibition of LPI-stimulated GPR55 beta-arrestin translocation – imaging, U2OS, beta-arrestin-GFP, LPI agonist, primary screen (AID 2013); assay type: functional;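 also: antagonist potency measured as reduced agonist-driven arrestin aggregation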
H4 = test: Luminescence Cell-Based Dose Response HTS to Identify Activators of 5'UTR Stem-Loop Driven Prion Protein mRNA Translation in H4 Neuroglioblastoma Cells. [Related pubchem assays: 1829 (Project Summary), 1814 (Primary HTS)]; assay type: functional; conditions: Homo sapiens
[13] = Luminescence Cell-Based Dose Confirmation HTS to Identify Activators of 5'UTR Stem-Loop Driven Alpha-Synuclein mRNA Translation in H4 Neuroglioblastoma Cells. [Related pubchem assays: 1829 (Project Summary), 1814 (Primary HTS)]; assay type: functional
[14] = Luminescence Cell-Based Dose Response HTS to Identify Activators of Luciferase Translation or Activity in H4 […] Cells. [Related pubchem assays: 1829 (Project Summary), 1814 (Primary HTS)]; assay type: functional
A-375 = test: proliferation inhibition in MITF-low A375 cells – cell-based, cherry-pick samples, set 2, counter-screen for MITF modulator project, dose response (AID 540335); assay type: functional; conditions: Homo sapiens
[15] = target: T4, Microphthalmia-associated transcription factor (Homo sapiens, UniProt O75030); test: reducers of TRPM1 reporter luminescence, concentration series – cell-based, SK-MEL-5, cherry-picked, set 3, MITF inhibitor project, dose response (AID 493073); assay type: functional;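 also: SK-MEL-5 melanoma cells with luciferase driven by the MITF target TRPM1 promoter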
T4 sequence (O75030 whole entry): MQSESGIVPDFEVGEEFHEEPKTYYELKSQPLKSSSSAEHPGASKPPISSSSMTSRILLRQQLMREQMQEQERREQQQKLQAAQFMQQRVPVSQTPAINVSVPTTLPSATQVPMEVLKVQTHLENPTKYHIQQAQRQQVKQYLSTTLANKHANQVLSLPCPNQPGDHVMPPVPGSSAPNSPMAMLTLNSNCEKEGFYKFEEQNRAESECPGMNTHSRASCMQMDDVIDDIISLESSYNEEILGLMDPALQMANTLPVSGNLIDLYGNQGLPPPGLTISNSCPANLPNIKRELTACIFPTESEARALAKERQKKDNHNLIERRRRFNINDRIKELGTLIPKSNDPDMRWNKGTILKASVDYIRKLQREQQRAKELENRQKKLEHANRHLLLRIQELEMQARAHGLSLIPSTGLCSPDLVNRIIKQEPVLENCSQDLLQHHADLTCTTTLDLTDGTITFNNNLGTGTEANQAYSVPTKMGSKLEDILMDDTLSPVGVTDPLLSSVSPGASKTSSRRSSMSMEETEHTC

Paired box protein Pax-8 = Paired box protein Pax-8 (Homo sapiens, UniProt Q06710); test: PAX8 transcriptional activity inhibition in RMG-I – RMG-I cells, luciferase, cherry-pick, dose response (AID 687027); assay type: functional, cell-based;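 also: luciferase reporter driven by Pax8 target thyroperoxidase promoter measured by SteadyGlo luminescence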
[16] = Fluorescence-based cell-based high throughput dose response assay for inhibitors of the interaction of nucleotide-binding oligomerization domain containing 2 (NOD2) and the receptor-interacting serine-threonine kinase 2 (RIPK2).; assay type: functional; conditions: Homo sapiens
[17] = target: T5, Heat shock factor protein 1 (Mus musculus, UniProt P38532); test: decrease of HSF1-responsive luciferase luminescence – cell-based, NIH3T3, dose retest, confirmation (AID 2382); assay type: functional;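 also: NIH3T3 fibroblasts with HSF1-driven luciferase reporter stressed by proteasome inhibitor MG132; luminescence from HSF1-driven luciferase expression after 8 hours of MG132 stress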
T5 sequence (P38532 whole entry): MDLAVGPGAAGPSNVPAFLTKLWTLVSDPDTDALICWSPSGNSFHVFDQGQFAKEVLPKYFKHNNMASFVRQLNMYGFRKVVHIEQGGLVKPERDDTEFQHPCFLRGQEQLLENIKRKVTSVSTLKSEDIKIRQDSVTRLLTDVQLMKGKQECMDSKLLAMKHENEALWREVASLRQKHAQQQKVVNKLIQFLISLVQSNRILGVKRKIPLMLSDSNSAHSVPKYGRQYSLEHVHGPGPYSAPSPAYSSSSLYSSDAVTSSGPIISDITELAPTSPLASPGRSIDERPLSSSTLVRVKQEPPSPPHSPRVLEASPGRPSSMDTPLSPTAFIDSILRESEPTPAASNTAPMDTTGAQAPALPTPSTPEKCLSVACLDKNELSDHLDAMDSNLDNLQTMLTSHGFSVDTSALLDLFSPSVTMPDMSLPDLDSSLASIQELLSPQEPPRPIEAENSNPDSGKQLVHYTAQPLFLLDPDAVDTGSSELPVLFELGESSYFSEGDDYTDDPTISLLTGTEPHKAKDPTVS

Galanin receptor type 3 = Galanin receptor type 3 (Homo sapiens, UniProt O60755); test: Fluorescence-based cell-based primary high throughput dose response assay to identify antagonists of the Galanin Receptor 3 (GalR3).; assay type: functional
Coagulation factor XII = target: T6, Coagulation factor XII (Homo sapiens, UniProt P00748); assay type: functional;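 also: activated factor XIIa alpha cleaving a fluorogenic AMC peptide substrate; inhibitor potency from loss of enzyme activity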
T6 sequence (P00748 whole entry): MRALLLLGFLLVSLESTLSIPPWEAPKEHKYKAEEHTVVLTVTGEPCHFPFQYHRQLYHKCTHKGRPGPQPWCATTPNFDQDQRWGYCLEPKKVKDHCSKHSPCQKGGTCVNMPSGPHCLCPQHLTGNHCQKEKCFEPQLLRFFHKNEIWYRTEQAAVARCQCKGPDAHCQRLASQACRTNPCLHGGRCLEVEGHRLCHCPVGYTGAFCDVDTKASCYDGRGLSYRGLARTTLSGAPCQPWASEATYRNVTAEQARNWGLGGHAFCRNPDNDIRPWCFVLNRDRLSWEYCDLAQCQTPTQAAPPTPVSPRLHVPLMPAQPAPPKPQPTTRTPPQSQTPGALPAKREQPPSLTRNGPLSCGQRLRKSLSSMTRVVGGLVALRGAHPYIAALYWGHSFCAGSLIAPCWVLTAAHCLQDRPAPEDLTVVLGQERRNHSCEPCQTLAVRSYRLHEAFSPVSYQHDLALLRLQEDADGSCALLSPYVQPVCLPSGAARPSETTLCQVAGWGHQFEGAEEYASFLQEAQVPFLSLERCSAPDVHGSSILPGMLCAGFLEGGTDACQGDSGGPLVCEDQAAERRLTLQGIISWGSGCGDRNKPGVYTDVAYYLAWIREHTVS

SMILES: COCCn1c(=O)c2ccccc2c2ccccc2c1=O
- EC50 (Troponin, cardiac muscle): > 71.5 µM (inactive)

SMILES: CCOc1ccc2nc(NC(=O)CSc3nc4c(c(=O)n(C)c(=O)n4C)n3C(C)C)sc2c1
- Absolute IC50 (CHOP) [1]: 10 µM

SMILES: Cc1c(C(=O)OCC(=O)c2c(N)n(CC(C)C)c(=O)n(C)c2=O)oc2ccccc12
- IC50 (HEK293 [2]): > 20 µM (inactive)
- IC50 (HEK293 [3]): > 20 µM (inactive)
- IC50 [4]: 17.4 µM (active)
- EC50 (HEK293 [5]): 15.7 µM (active)
- IC50 [6]: 14.9 µM (active)
- IC50 (HEK293 [7]): 19 µM (inactive)
- EC50 [8]: > 20 µM (inactive)
- IC50 (Tumor necrosis factor): > 20 µM (inactive)
- IC50 (HEK293 [9]): > 20 µM (inactive)
- IC50 (HEK293 [10]): > 20 µM (inactive)

SMILES: CCCCn1c(=O)[nH]c(=O)c2c1nc(Cn1ncc(Cl)c(Cl)c1=O)n2CCC
- EC50 (cells): > 29.9 µM (inactive)
- IC50 [11]: 12.6 µM (active)
- IC50 [12]: 6.1 µM (active)
- EC50 (H4): > 120 µM (not active)
- EC50 [13]: > 120 µM (not active)
- EC50 [14]: > 120 µM (not active)
- AC50 (A-375): 28.9 µM (active)
- AC50 [15]: 8.12 µM (active)
- AC50 (Paired box protein Pax-8): 6.68 µM (active)
- IC50 [16]: 2.15 µM (active)
- EC50 [17]: 2.89 µM (active)
- IC50 (Galanin receptor type 3): > 3.32 µM (active)

SMILES: CC(C)Oc1ccc(CNC(=S)N/N=C/c2ccc([N+](=O)[O-])cc2)cc1
- IC50 (Coagulation factor XII): > 50 µM (inactive)
- Absolute IC50 (CHOP) [1]: 10 µM
- EC50 [17]: > 195 µM (not active)
